Values quoted from earlier work, collected in patent US20210100740A1, “BIO-ADHESIVE DISSOLVING COMPOUNDS AND DEVICE” (Segal Innovations LLC, priority 2019, published 2021).

Structure (SMILES): CO[C@@]12[C@H](COC(N)=O)C3=C(C(=O)C(C)=C(N)C3=O)N1C[C@@H]1N[C@@H]12 [mitomycin]
- degradation in acidic solutions and when exposed to light (acidic solutions with a pH of less than 6, exposed to light): rapid degradation
- how long mitomycin lasts (refrigerated between 2° C. and 8° C. without being exposed to light): up to one week
